In patent US20060140857A1, “Method of the administration of drugs with binding affinity for plasma protein and preparation to be used in the method” (NIHON MEDI-PHYSICS CO., LTD., priority 1999, published 2006):

Tests used:
[1] = target: human serum albumin (HSA) (Homo sapiens, UniProt P02768); experiment: Displacement of 99mTc-MAG3 binding to serum albumin, human serum, ultrafiltration; conditions: human serum
Protocol: (§1) Displacement test of ^99mTc-MAG3 binding to serum albumin was conducted as follows by use of human serum or rat serum and site-specific drugs (second drugs) with binding affinity for the binding site I or site II on albumin.
First, albumin content in a normal human serum was measured previously, and the concentration of the human serum albumin (HSA) was adjusted to 500 μM by phosphate buffer (pH=7.4).
Further, a site-specific drug with the binding affinity for the site I or the site II on HSA was added to the above-mentioned serum solution, as in the form of a methanol solution or an aqueous solution. As the sample solution for control group, only methanol or water was added to the above-mentioned serum solution.
Next, a certain amount of ^99mTc-MAG3 (about 740 kBq/20 μl) was added to each of the sample and a certain amount (20-50 μl) of the sample was taken out as the specimen before ultrafiltration. […] Then, 20-50 μl each of the filtrates was taken out as the specimen after ultrafiltration. Radioactivities (cpm) of the specimens before and after ultrafiltration were measured, and the free fraction (%) of ^99mTc-MAG3 was calculated by the following equation: free fraction of ^99mTc-MAG3 (%)=[A]/[B] [A]: Radioactivity (cpm) after ultrafiltration, [B]: Radioactivity (cpm) before ultrafiltration

[2] = Free fraction of 99mTc-MAG3 in rat blood after administration of bucolome; format: in vivo; conditions: rats, bucolome loading 20 mg/kg, FIG. 4
Protocol: In the control group and test group with bucolome loading of 20 mg/kg of body weight, wherein the dose and other conditions were the same as mentioned above, except the decapitation time was prescribed at 2, 5 and 10 minutes, administrations and decapitations of rats were conducted so that 3-5 ml of blood per one rat were collected. Serum was separated using a sample tube, after that the free fraction was determined by the procedures as described in Example 1.

serum albumin = serum albumin (Homo sapiens, UniProt P02768); experiment: Displacement of 99mTc-ECD binding to plasma protein, human serum; conditions: second drug 200 μM and 400 μM
[3] = Biodistribution of 99mTc-MAG3 in rat loaded with bucolome; format: in vivo, Wister-strain rat; conditions: rats
Protocol: Effect of second drug on biodistribution of ^99mTc-MAG3 in rat was examined using the control group and the test group with bucolome loading. ^99mTc-MAG3 (740 kBq/100 μl) was administered to the tail vein of Wister-strain rat. The rats were decapitated at 2, 5, 10 and 15 minutes after administration of ^99mTc-MAG3, then the blood and the organs of interest were excised. After measured the weight of these orgams, the radioactivities were determined. After decay correction of the radioactivity, the accumulation ratios (% dose/organ and % dose/g of the tissue) were determined.
As for the rat of test group loaded with bucolome, 5 minutes before the administration of ^99mTc-MAG3, 20 mg/kg of body weight or 100 mg/kg of body weight of bucolome was administered to the tail vein.

rat serum albumin (RSA) = rat serum albumin (RSA) (Rattus norvegicus, UniProt P02770); experiment: Displacement of 99mTc-MAG3 binding to serum albumin, rat serum, ultrafiltration; conditions: rat serum, RSA 375 μM, control without second drug
Protocol: as §1
Next, a certain amount of ^99mTc-MAG3 (about 740 kBq/20 μl) was added to each of the sample and a certain amount (20-50 μl) of the sample was taken out as the specimen before ultrafiltration. Each 0.9 mL of the samples was put in a ultrafilter and conducted ultrafiltration under the condition of 1500Xg, for 10 minutes. Then, 20-50 μl each of the filtrates was taken out as the specimen after ultrafiltration. Radioactivities (cpm) of the specimens before and after ultrafiltration were measured, and the free fraction (%) of ^99mTc-MAG3 was calculated by the following equation: free fraction of ^99mTc-MAG3 (%)=[A]/[B] [A]: Radioactivity (cpm) after ultrafiltration, [B]: Radioactivity (cpm) before ultrafiltration

[4] = Renography of 99mTc-MAG3 in rats with bucolome loading; format: in vivo, Wistar-strain rats
Protocol: By using Wistar-strain rats (body weight: 400 g), displacement effect of bucolome on ^99mTc-MAG3 was examined by means of renography in rats. Prism 3000 (picker) was used as an apparatus.
The dynamic imaging was conducted 10 seconds/scan for 20 minutes. About 2 hours after, confirming the urination and decrease in background radioactivity, then bucolome was loaded to the same rat. Bucolome was dissolved in ethanol and adjusted as in the dose of 20 mg/kg, then intravenously injected by using a microinjector taken in 10 minutes. About 5 minutes after finish of the intravenous injection of bucolome, ^99mTc-MAG3 was intravenously injected through the catheter and the renogram was taken similarly by 10 seconds/scan for 20 minutes. […] On the other hand, in the test group with bucolome loading, the radioactivity curve rose quickly, and the peak time was 120 seconds which was a half length of that of the control group. Renal function is usually analyzed by determination of the peak time in this renogram and a slope of the straight line in a linear regression. By inhibiting the binding ability of ^99mTc-MAG3 to plasma protein, the renogram was obtained as close to an ideal and was apploximated to a simple curve. Thus, the functional analysis of the kidney can be easily carried out, and the time for functional analysis can be shortened by shortening the peak time.

plasma protein = conditions: ordinary clinical dose; cited from earlier work
[5] = Rat 1, test group with bucolome loading 20 mg/kg
[6] = Rat 2, test group with bucolome loading 20 mg/kg
[7] = 20 mg/kg bucolome loading, 2 minutes
[8] = 20 mg/kg bucolome loading, 5 minutes
[9] = 20 mg/kg bucolome loading, 10 minutes
[10] = 20 mg/kg bucolome loading, 15 minutes
[11] = 100 mg/kg bucolome loading, 10 minutes
[12] = control group of Table 6, 10 minutes

Sequence of human serum albumin (HSA) (P02768 25-609): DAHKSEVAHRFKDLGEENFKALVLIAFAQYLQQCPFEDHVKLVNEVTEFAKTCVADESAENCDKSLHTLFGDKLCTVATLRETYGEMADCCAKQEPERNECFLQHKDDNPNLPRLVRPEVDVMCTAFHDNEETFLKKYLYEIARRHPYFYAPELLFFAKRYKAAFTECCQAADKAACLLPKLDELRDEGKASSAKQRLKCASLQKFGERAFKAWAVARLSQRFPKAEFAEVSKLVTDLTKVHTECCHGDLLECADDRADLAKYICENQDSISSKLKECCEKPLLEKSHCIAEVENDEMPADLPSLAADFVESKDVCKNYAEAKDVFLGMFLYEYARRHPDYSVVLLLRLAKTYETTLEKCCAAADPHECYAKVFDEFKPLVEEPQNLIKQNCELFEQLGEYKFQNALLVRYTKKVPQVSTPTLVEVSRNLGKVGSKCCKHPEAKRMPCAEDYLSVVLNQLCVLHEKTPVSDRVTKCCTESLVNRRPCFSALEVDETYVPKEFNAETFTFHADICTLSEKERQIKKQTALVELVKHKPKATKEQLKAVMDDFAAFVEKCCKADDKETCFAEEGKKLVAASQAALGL
Sequence of rat serum albumin (RSA) (P02770 25-608): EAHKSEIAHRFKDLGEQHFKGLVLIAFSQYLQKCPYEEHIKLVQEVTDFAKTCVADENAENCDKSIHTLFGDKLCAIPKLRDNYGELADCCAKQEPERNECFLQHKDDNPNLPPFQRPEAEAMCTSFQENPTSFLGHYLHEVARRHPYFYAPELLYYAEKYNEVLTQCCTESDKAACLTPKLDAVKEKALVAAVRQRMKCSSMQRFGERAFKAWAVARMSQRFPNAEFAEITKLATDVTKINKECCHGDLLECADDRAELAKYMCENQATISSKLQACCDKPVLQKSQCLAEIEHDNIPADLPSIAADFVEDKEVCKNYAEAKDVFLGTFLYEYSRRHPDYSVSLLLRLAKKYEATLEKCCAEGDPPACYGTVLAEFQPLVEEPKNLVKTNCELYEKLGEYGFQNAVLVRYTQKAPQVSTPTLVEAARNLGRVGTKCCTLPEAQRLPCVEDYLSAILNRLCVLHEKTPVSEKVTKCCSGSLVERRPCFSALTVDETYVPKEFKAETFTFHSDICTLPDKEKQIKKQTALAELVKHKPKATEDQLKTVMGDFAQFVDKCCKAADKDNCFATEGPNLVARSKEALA
Sequence of serum albumin (P02768 25-609): as the sequence (P02768 25-609) above

CCCCC1C(=O)NC(=O)N(C2CCCCC2)C1=O (stereo not drawn) [bucolome, 5-n-butyl-1-cyclohexyl-2,4,6-trioxoperhydropyrimidine]
change of free fraction of 99mTc-MAG3 compared with control ([1]; second drug added): significantly increased
effect on free fraction of 99mTc-MAG3 in vivo [2]: remarkably increased
change of free fraction of 99mTc-ECD compared with control (serum albumin): also incresed
effect on blood clearance of 99mTc-MAG3 ([3]; bucolome loading, FIG. 3): accelarated

O=C(O)C[N]1C(=O)C[N]2C(=O)C[N]3C(=O)C[S][99Tc-]132=[O] [99mTc-MAG3, mercaptoacetylglycylglycylglycine labeled with 99m-technetium]
99mTc-MAG3 free fraction (%) ([1]; HSA 500 μM, control without second drug): 10.2%
99mTc-MAG3 free fraction (%) (rat serum albumin (RSA)): 24.75%
Renogram Peak time ([4]; FIG. 7, control group): 240 s
Renogram Peak time ([4]; FIG. 7, test group with bucolome loading): 120 s
Renogram Peak time ([4]; Rat 1, control group): 240 s
Renogram Slope (Count/second) ([4]; Rat 1, control group): 1.166 Count/second
Renogram Peak time [4, 5]: 110 s
Renogram Slope (Count/second) [4, 5]: 2.208 Count/second
Renogram Peak time ([4]; Rat 2, control group): 170 s
Renogram Slope (Count/second) ([4]; Rat 2, control group): 0.941 Count/second
Renogram Peak time [4, 6]: 120 s
Renogram Slope (Count/second) [4, 6]: 2.000 Count/second
Biodistribution of 99mTc-MAG3, Blood [3, 7]: 1.050 ± 0.057 % dose/g tissue
Biodistribution of 99mTc-MAG3, Urine [3, 7]: 0.802 ± 0.709 % dose/organ
Biodistribution of 99mTc-MAG3, Blood [3, 8]: 0.544 ± 0.043 % dose/g tissue
Biodistribution of 99mTc-MAG3, Urine [3, 8]: 2.692 ± 2.721 % dose/organ
Biodistribution of 99mTc-MAG3, Blood [3, 9]: 0.186 ± 0.076 % dose/g tissue
Biodistribution of 99mTc-MAG3, Urine [3, 9]: 14.792 ± 4.307 % dose/organ
Biodistribution of 99mTc-MAG3, Blood [3, 10]: 0.152 ± 0.088 % dose/g tissue
Biodistribution of 99mTc-MAG3, Urine [3, 10]: 23.969 ± 18.025 % dose/organ
Biodistribution of 99mTc-MAG3, Blood [3, 11]: 0.047 ± 0.044 % dose/g tissue
Biodistribution of 99mTc-MAG3, Brain [3, 11]: 0.001 ± 0.001 % dose/g tissue
Biodistribution of 99mTc-MAG3, Heart [3, 11]: 0.014 ± 0.010 % dose/g tissue
Biodistribution of 99mTc-MAG3, Kidney [3, 11]: 0.651 ± 0.324 % dose/g tissue
Biodistribution of 99mTc-MAG3, Liver [3, 11]: 0.033 ± 0.026 % dose/g tissue
Biodistribution of 99mTc-MAG3, Lung [3, 11]: 0.043 ± 0.037 % dose/g tissue
Biodistribution of 99mTc-MAG3, Pancreas [3, 11]: 0.006 ± 0.007 % dose/g tissue
Biodistribution of 99mTc-MAG3, Spleen [3, 11]: 0.009 ± 0.008 % dose/g tissue
Biodistribution of 99mTc-MAG3, Stomach [3, 11]: 0.040 ± 0.036 % dose/g tissue
Biodistribution of 99mTc-MAG3, Blood [3, 12]: 0.317 ± 0.073 % dose/g tissue
Biodistribution of 99mTc-MAG3, Brain [3, 12]: 0.010 ± 0.001 % dose/g tissue
Biodistribution of 99mTc-MAG3, Heart [3, 12]: 0.101 ± 0.016 % dose/g tissue
Biodistribution of 99mTc-MAG3, Kidney [3, 12]: 6.191 ± 0.187 % dose/g tissue
Biodistribution of 99mTc-MAG3, Liver [3, 12]: 0.151 ± 0.001 % dose/g tissue
Biodistribution of 99mTc-MAG3, Lung [3, 12]: 0.195 ± 0.030 % dose/g tissue
Biodistribution of 99mTc-MAG3, Pancreas [3, 12]: 0.046 ± 0.000 % dose/g tissue
Biodistribution of 99mTc-MAG3, Spleen [3, 12]: 0.052 ± 0.008 % dose/g tissue
Biodistribution of 99mTc-MAG3, Stomach [3, 12]: 0.024 ± 0.024 % dose/g tissue
Biodistribution of 99mTc-MAG3, Blood ([3]; control group, 2 Minutes): 1.482 ± 0.137 % dose/g tissue
Biodistribution of 99mTc-MAG3, Urine ([3]; control group, 2 Minutes): 0.236 ± 0.119 % dose/organ
Biodistribution of 99mTc-MAG3, Blood ([3]; control group, 5 Minutes): 0.968 ± 0.163 % dose/g tissue
Biodistribution of 99mTc-MAG3, Urine ([3]; control group, 5 Minutes): 1.309 ± 0.941 % dose/organ
Biodistribution of 99mTc-MAG3, Blood ([3]; control group, 10 Minutes): 0.387 ± 0.018 % dose/g tissue
Biodistribution of 99mTc-MAG3, Urine ([3]; control group, 10 Minutes): 16.872 ± 4.042 % dose/organ
Biodistribution of 99mTc-MAG3, Blood ([3]; control group, 15 minutes): 0.160 ± 0.022 % dose/g tissue
Biodistribution of 99mTc-MAG3, Urine ([3]; control group, 15 minutes): 38.419 ± 2.150 % dose/organ
fraction of 99mTc-MAG3 bound to plasma protein (plasma protein): about 90%
